Patent US20070232647A1, “Use of Ppar Agonists to Treat Ruminants” (priority 2004, published 2007)

Columns and labels:
[1] = system: Holstein cows; assay: Average daily milk yield over sixty days after calving; type: in vivo; settings: approximately 0.5 mg/kg SC on day of calving and day five post-calving, increased from 41.8 (placebo), p=0.052, FIG. 6
Protocol: One hundred twenty four pregnant, non-lactating Holstein cows were allocated to two treatment groups (placebo and COMPOUND (at approximately 0.5 mg/kg). In this Example COMPOUND is (3S)-3-[3-(1-Carboxy-1-methyl-ethoxy)-phenyl]-piperidine-1-carboxylic acid, 4-trifluoromethyl-benzyl ester. Animals were allowed to calve, treated by subcutaneous injection on the day of calving and on day five post-calving. Disease events and daily milk production were recorded for the following sixty days. The average daily milk yield in the treated cows was increased from 41.8 to 43.2 kg/day (p=0.052). Results are shown in FIG. 6.

[2] = system: mid-lactation cows; assay: Serum glucose levels, Example 1: PK/PD of two PPAR alpha agonists given IV and SC; type: in vivo; settings: 0.5 mg/kg IV or SC, regardless of route of administration; blood samples up to 72 hours; FIG. 1
Protocol: Both compounds were administered by IV and SC routes, as outlined in the table below.
All animals were bled one day prior, and 15 minutes prior, to compound administration. Blood samples were collected from animals treated via IV at 5 and 10 minutes post compound administration. Blood samples were collected from all animals at 0.5, 1, 2, 4, 6, 24, 30, 48, 54, and 72 hours post compound administration. Samples were analyzed for glucose concentrations using a Dade Behring Dimension RXL serum chemistry analyzer. […] Other commercially available, standard apparatus for testing glucose levels can also be used.

| Compound | average daily milk yield [1] [kg/day] | glucose concentration relative to baseline values [2] |
| --- | --- | --- |
| CC(C)(Oc1cccc([C@@H]2CCCN(C(=O)OCc3ccc(C(F)(F)F)cc3)C2)c1)C(=O)O [Compound A, (3S)-3-[3-(1-Carboxy-1-methyl-ethoxy)-phenyl]-piperidine-1-carboxylic acid 4-trifluoromethyl-benzyl ester] | 43.2 |  |
| Cc1ccc(-c2ccc(NS(=O)(=O)c3ccc(C)c(C(=O)O)c3)cc2)cc1 [Compound X, 2-Methyl-5-(4′-methyl-biphenyl-4-ylsulfamoyl)-benzoic acid] |  | increase in glucose |
